Measurements: patent publication US20240262795A1, “PYRAZINE COMPOUNDS AS INHIBITORS OF FLT3” (Biomea Fusion, Inc., priority 2021, published 2024)
Like-named read-outs stand apart in the source and are kept apart here.

Key:
[1] = target: T1, FLT3-ITD (Homo sapiens, UniProt P36888, DUP595-601); assay: FLT3-ITD Lance Ultra TR-FRET kinase assay; type: biochemical
T1 construct: purchased Signalchem F-12-12CG-10
T1 sequence (P36888 with tags, fused parts or gaps DUP595-601 limits assumed): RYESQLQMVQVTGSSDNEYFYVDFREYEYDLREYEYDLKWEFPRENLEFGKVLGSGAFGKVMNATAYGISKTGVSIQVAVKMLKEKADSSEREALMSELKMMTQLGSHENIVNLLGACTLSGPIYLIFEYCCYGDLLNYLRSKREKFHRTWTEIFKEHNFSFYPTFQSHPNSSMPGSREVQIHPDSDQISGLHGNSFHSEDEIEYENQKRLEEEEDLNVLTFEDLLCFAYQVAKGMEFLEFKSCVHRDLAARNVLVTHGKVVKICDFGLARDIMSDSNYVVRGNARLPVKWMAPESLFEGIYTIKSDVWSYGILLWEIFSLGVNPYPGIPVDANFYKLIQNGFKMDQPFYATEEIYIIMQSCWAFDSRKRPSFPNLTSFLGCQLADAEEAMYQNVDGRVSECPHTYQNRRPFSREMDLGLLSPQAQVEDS
Summary of the method: (§1)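 Lance Ultra TR-FRET with 50 nM ULight-JAK-1 (Tyr1023) peptide, Eu-anti-phosphotyrosine (PT66) detection, in HEPES pH 7.5 buffer at 23° C, 30 min enzyme/compound preincubation. WT: 0.5 nM enzyme, 100 μM ATP, 30 min; ITD: 0.0625 nM, 50 μM ATP, 60 min. IC50 by four-parameter fit of 11-point 3× dilutions.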

[2] = system: MOLM-13; assay: Proliferation inhibition, CellTiter-Glo, MOLM-13; type: cell-based, human; details: for IC50: Homo sapiens, MOLM-13 cells
Summary of the method: (§2)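 About 10,000 cells per well in RPMI-1640 with 10% FBS. Compounds added 2 h after seeding at eight concentrations in duplicate (0.2% DMSO as 100% proliferation), then incubated ~96 h at 37° C, 5% CO2. ATP measured by CellTiter-Glo luminescence; IC50 from four-parameter logistic fit.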

[3] = target: T2, WT FLT3 (Homo sapiens, UniProt P36888); assay: WT FLT3 Lance Ultra TR-FRET kinase assay; type: biochemical
T2 construct: purchased Invitrogen PR4666C
T2 sequence (P36888 564-993 limits assumed): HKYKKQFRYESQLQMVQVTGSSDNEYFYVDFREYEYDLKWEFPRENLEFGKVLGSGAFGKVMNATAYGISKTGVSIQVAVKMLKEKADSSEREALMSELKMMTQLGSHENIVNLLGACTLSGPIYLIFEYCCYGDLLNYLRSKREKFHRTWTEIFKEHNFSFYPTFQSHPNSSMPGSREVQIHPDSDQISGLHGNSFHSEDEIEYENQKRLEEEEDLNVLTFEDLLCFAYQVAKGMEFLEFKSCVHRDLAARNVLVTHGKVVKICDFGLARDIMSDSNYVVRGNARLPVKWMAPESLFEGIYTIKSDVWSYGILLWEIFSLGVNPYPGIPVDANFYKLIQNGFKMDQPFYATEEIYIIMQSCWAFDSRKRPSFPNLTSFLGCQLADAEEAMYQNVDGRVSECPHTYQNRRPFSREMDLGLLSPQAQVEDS
Summary of the method: as §1

[4] = system: MV-4-11; assay: Proliferation inhibition, CellTiter-Glo, MV-4-11; type: cell-based, human; details: for IC50: Homo sapiens
Summary of the method: as §2

[5] = system: K-562; assay: Proliferation inhibition, CellTiter-Glo, K-562; type: cell-based, human; details: for IC50: Homo sapiens
Summary of the method: as §2

[6] = 96 h, IC50 (4 days), CellTiter-Glo, read-out: MOLM-13 IC50
[7] = read-out: IC50 in MOLM-13 cells
[8] = MV4-11, 96 h, MV-4:11 cells, IC50 (4 days), CellTiter-Glo, read-out: MV-4:11 IC50
[9] = MV4-11 cells, read-out: IC50 in MV4-11 cells
[10] = K562, 96 h, K-562 cells, IC50 (4 days), CellTiter-Glo, read-out: K-562 IC50
[11] = K562 cells, read-out: IC50 in K562 cells

| IC50 [1] | IC50 [2, 6] | IC50 [2, 7] | IC50 [3] | IC50 [4, 8] | IC50 [4, 9] | IC50 [5, 10] | IC50 [5, 11] | SMILES | Ymax in MOLM-13 cells [2] | Ymax in MV4-11 cells ([4]; MV4-11 cells) | Ymax in K562 cells ([5]; K562 cells) |
| --- | --- | --- | --- | --- | --- | --- | --- | --- | --- | --- | --- |
| > 1 nM | > 500 nM | > 100 nM | > 1 nM | > 500 nM | > 100 nM | > 500 nM | > 100 nM | C=CC(=O)Nc1cccc(Nc2nc(N3CCC[C@H](NC(=O)c4ccc(C5CC5)cc4)[C@@H]3C)cnc2C(N)=O)c1 [Compound C-1, reference compound] | 0% | 9.7% | 0% |
| 0.501 to 1 nM | 10 to 100 nM | 19.2 nM | 0.501 to 1 nM | 1 to 10 nM | 5 nM | 10 to 100 nM | 44 nM | C=CC(=O)Nc1cc(Nc2nc(NC3CCOCC3)c(CC)nc2C(N)=O)ccc1N1CCC(N2CCN(C)CC2)CC1 [Compound C-2, reference compound] | 98.6% | 99.1% | 95.8% |
| > 1 nM | > 500 nM | > 100 nM | > 1 nM | > 500 nM | > 100 nM | > 500 nM | > 100 nM | C=CC(=O)Nc1cc(Nc2nc(N[C@H]3CC[C@@](C)(O)CC3)c(CC)nc2C(N)=O)ccc1C [Compound C-3, reference compound] | 0% | 6.8% | 0% |
